Assay results from the supplement of paper PMC10307832.

Columns and labels:
Test in all cases: relative viability (nuclei count vs DMSO), 5 days (fraction); higher = more cells survive
[1] = system: A-427
Outline: (§1)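 After 5 days of treatment, lung cancer cells in 1536-well plates were fixed and stained in a single step (final 0.05% Triton X-100, 1% formaldehyde, 1 ug/ml Hoechst) and their nuclei counted on 4× images. Treatment had been applied by pin tool the day after seeding as one drug alone or as a fixed anchor-drug dose with five library-drug doses (not always all listed) in √10 steps. Relative viability is the nuclei count of treated wells divided by that of vehicle wells, and values are medians of duplicate plates.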

[2] = system: CAL-12T
Outline: as §1

[3] = system: COR-L 105
Outline: as §1

[4] = system: EMC-BAC-2
Outline: as §1

[5] = system: HARA
Outline: as §1

[6] = system: HCC-366
Outline: as §1

[7] = system: HCC-827
Outline: as §1

[8] = system: HOP-62
Outline: as §1

[9] = system: LCLC-103H
Outline: as §1

[10] = system: NCI-H1355
Outline: as §1

[11] = system: NCI-H1437
Outline: as §1

[12] = system: NCI-H1755
Outline: as §1

[13] = system: NCI-H1792
Outline: as §1

[14] = system: NCI-H1915
Outline: as §1

[15] = system: NCI-H1975
Outline: as §1

[16] = system: NCI-H2009
Outline: as §1

[17] = system: NCI-H2228
Outline: as §1

[18] = system: NCI-H23
Outline: as §1

[19] = system: NCI-H460
Outline: as §1

[20] = system: NCI-H727
Outline: as §1

[21] = system: SK-LU-1
Outline: as §1

[22] = system: SW 1573
Outline: as §1

## O=C(O)c1ccc(-c2c[nH]c3ncc(-c4ccccc4)cc23)cc1C1CCCC1 + C[C@@H](Oc1cc(-c2cnn(C3CCNCC3)c2)cnc1N)c1c(Cl)ccc(F)c1Cl [Crizotinib] (partner 1 µM)
[1]; first compound 0.04 µM
  relative viability: 0.941
[1]; first compound 0.1265 µM
  relative viability: 0.845
[1]; first compound 0.4 µM
  relative viability: 0.86
[1]; first compound 1.265 µM
  relative viability: 0.852
[2]; first compound 0.04 µM
  relative viability: 0.633
[2]; first compound 0.1265 µM
  relative viability: 0.755
[2]; first compound 0.4 µM
  relative viability: 0.701
[2]; first compound 1.265 µM
  relative viability: 0.528
[3]; first compound 0.04 µM
  relative viability: 0.857
[3]; first compound 0.1265 µM
  relative viability: 0.789
[3]; first compound 0.4 µM
  relative viability: 0.723
[3]; first compound 1.265 µM
  relative viability: 0.792
[4]; first compound 0.04 µM
  relative viability: 0.76
[4]; first compound 0.1265 µM
  relative viability: 0.806
[4]; first compound 0.4 µM
  relative viability: 0.671
[4]; first compound 1.265 µM
  relative viability: 0.672
[5]; first compound 0.04 µM
  relative viability: 0.985
[5]; first compound 0.1265 µM
  relative viability: 1.04
[5]; first compound 0.4 µM
  relative viability: 1.02
[5]; first compound 1.265 µM
  relative viability: 0.763
[6]; first compound 0.04 µM
  relative viability: 0.502
[6]; first compound 0.1265 µM
  relative viability: 0.686
[6]; first compound 0.4 µM
  relative viability: 0.619
[6]; first compound 1.265 µM
  relative viability: 0.696
[7]; first compound 0.04 µM
  relative viability: 0.88
[7]; first compound 0.1265 µM
  relative viability: 0.95
[7]; first compound 0.4 µM
  relative viability: 0.897
[7]; first compound 1.265 µM
  relative viability: 0.724
[8]; first compound 0.04 µM
  relative viability: 0.902
[8]; first compound 0.1265 µM
  relative viability: 0.901
[8]; first compound 0.4 µM
  relative viability: 0.904
[8]; first compound 1.265 µM
  relative viability: 0.497
[9]; first compound 0.04 µM
  relative viability: 0.997
[9]; first compound 0.1265 µM
  relative viability: 1.05
[9]; first compound 0.4 µM
  relative viability: 1.03
[9]; first compound 1.265 µM
  relative viability: 1.04
[10]; first compound 0.04 µM
  relative viability: 1.05
[10]; first compound 0.1265 µM
  relative viability: 1.14
[10]; first compound 0.4 µM
  relative viability: 1.04
[10]; first compound 1.265 µM
  relative viability: 0.752
[11]; first compound 0.04 µM
  relative viability: 1.03
[11]; first compound 0.1265 µM
  relative viability: 0.959
[11]; first compound 0.4 µM
  relative viability: 0.874
[11]; first compound 1.265 µM
  relative viability: 0.839
[12]; first compound 0.04 µM
  relative viability: 0.883
[12]; first compound 0.1265 µM
  relative viability: 0.924
[12]; first compound 0.4 µM
  relative viability: 0.897
[12]; first compound 1.265 µM
  relative viability: 0.839
[13]; first compound 0.04 µM
  relative viability: 0.959
[13]; first compound 0.1265 µM
  relative viability: 0.994
[13]; first compound 0.4 µM
  relative viability: 1.03
[13]; first compound 1.265 µM
  relative viability: 0.891
[14]; first compound 0.04 µM
  relative viability: 0.96
[14]; first compound 0.1265 µM
  relative viability: 0.898
[14]; first compound 0.4 µM
  relative viability: 0.67
[14]; first compound 1.265 µM
  relative viability: 0.636
[15]; first compound 0.04 µM
  relative viability: 0.999
[15]; first compound 0.1265 µM
  relative viability: 1.04
[15]; first compound 0.4 µM
  relative viability: 0.923
[15]; first compound 1.265 µM
  relative viability: 0.767
[16]; first compound 0.04 µM
  relative viability: 0.994
[16]; first compound 0.1265 µM
  relative viability: 1.05
[16]; first compound 0.4 µM
  relative viability: 0.931
[16]; first compound 1.265 µM
  relative viability: 0.666
[17]; first compound 0.04 µM
  relative viability: 0.62
[17]; first compound 0.1265 µM
  relative viability: 0.556
[17]; first compound 0.4 µM
  relative viability: 0.469
[17]; first compound 1.265 µM
  relative viability: 0.292
[18]; first compound 0.04 µM
  relative viability: 0.689
[18]; first compound 0.1265 µM
  relative viability: 0.598
[18]; first compound 0.4 µM
  relative viability: 0.482
[18]; first compound 1.265 µM
  relative viability: 0.484
[19]; first compound 0.04 µM
  relative viability: 0.872
[19]; first compound 0.1265 µM
  relative viability: 1.06
[19]; first compound 0.4 µM
  relative viability: 0.83
[19]; first compound 1.265 µM
  relative viability: 0.864
[20]; first compound 0.04 µM
  relative viability: 0.971
[20]; first compound 0.1265 µM
  relative viability: 0.894
[20]; first compound 0.4 µM
  relative viability: 0.738
[20]; first compound 1.265 µM
  relative viability: 0.805
[21]; first compound 0.04 µM
  relative viability: 0.927
[21]; first compound 0.1265 µM
  relative viability: 0.901
[21]; first compound 0.4 µM
  relative viability: 0.719
[21]; first compound 1.265 µM
  relative viability: 0.682
[22]; first compound 0.04 µM
  relative viability: 0.769
[22]; first compound 0.1265 µM
  relative viability: 0.892
[22]; first compound 0.4 µM
  relative viability: 0.862
[22]; first compound 1.265 µM
  relative viability: 0.925
